In PMC10447463, “Data-mining unveils structure–property–activity correlation of viral infectivity enhancing self-assembling peptides” (Nature Communications, 2023):
Where two headings read alike, the source gives them in different places.

How the values were obtained:
[1] = system: HIV-1 infection of TZM-bl cells; assay: HIV-1 infectivity enhancement assay, β-galactosidase luminescence; type: cell-based; conditions: for Log10 Infection Rel EF-C: log10 of infection relative to EF-C; for Inf. rel. EF-C: n-fold infection vs virus only, relative to that of EF-C, 1.3 µM peptide; for Absolute Infectivity / RLU /s (Feb2021): figures match the 1.3 µM column; for Log10 Inf. rel. to EF-C: log10 of HIV-1 infection of TZM-bl cells relative to EF-C, Fig S15 source data, asymmetric std dev errors
[2] = type: physicochemical; set-up: key to Fibril / Fibril Formation / TEM 2cat / Fibril: 1 = fibrils present; 0 non-fibrillar structures; conditions: for Fibril / Fibril Formation: TEM, 1 mg/mL, uranyl acetate stain, qualitative
[3] = Turbidity, derived count rate of scattered light; type: physicochemical; conditions: for Count Rate / kcps: derived count rate of scattered light at 633 nm, 173°, from zeta-potential measurement, 0.1 mg/mL in 1 mM KCl after 1 d at 1 mg/mL in PBS, turbidity / microscopic aggregation, mean of triplicate
Procedure, shortened: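 One-day room-temperature aggregation at 1 mg/mL in PBS (pH 7.4) preceded measurement; samples then went into 1 mM KCl. Triplicates per sample, two independent experiments averaged.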

[4] = Feb2021, infectivity relative to virus only
[5] = Feb2021, log10 of infectivity relative to EF-C
[6] = Feb2021, n-fold infectivity relative to EF-C
[7] = infectivity class (low / medium / high) of each library peptide, main list in c1-c6, same classes repeated in sub-lists of sequences containing the hydrophobicity/charge patterns P+,H0,P+,H0,P0,H0,P0, P+,H0,P0,H0,P0,H0,P0, P+,H0,P0,H0
[8] = derived count rate of scattered light
[9] = infectivity class (low / medium / high) of the peptide in the sequence-pattern analysis, Fig. S22-A4, class limits not given
[10] = infectivity enhancement relative to EF-C (=1), Feb2021 run
[11] = infectivity n-fold relative to virus only, Feb2021 run
[12] = log10 of infectivity relative to EF-C, Feb2021 run
[13] = derived count rate from zeta measurement, mean
[14] = log10 of derived count rate of scattered light, Figure 6C
[15] = logarithm of count rate in kcps
[16] = Feb2021 run, infectivity n-fold relative to virus alone
[17] = Feb2021 run, log10 of infectivity relative to EF-C
[18] = Feb2021 run, n-fold infectivity relative to EF-C
[19] = derived count rate of scattered light, mean, std deviation in separate column

Substance	Log10 Infection Rel EF-C ([1]; Figure 7B)	Inf. rel. EF-C [1]	Fibril / Fibril Formation [2]	Count Rate / kcps [3]	Absolute Infectivity / RLU /s (Feb2021) ([1]; Feb2021)	n-fold to virus (Feb2021) [1, 4]	Log10 of Rel to EFC (Feb2021) [1, 5]	Rel-to EFC (Feb-2021) [1, 6]	infectivity [1, 7]	Log10 Inf. rel. to EF-C [1]	TEM: 1= fibrils, 0= aggregates (micelle), 0.5 = aggregates and fibrils, -1 = nothing obersved, STD prep [2]	Zeta Count Rate Category ([3]; category 1 / 0, no key given)	Zeta Count Rate / kcps [3, 8]	further results
KLVFFAK [reference compound]	-1.15	0.07	1	14 kcps										
KVKVKVQV [JG14 / TG14]					466.7 RLU /s	0.7254	-1.763	0.01726	low	-1.763	0.5	0	94.37 kcps	
KVKVQVV [TG2]					213.3 RLU /s	0.3832	-2.04	0.009121	low	-2.04	0.5	0	27.73 kcps	infectivity [1, 9]: low; Rel-to EFC (Feb-2021) [1, 10]: 0.009121; n-fold to virus (Feb2021) [1, 11]: 0.3832; Log10 of Rel to EFC (Feb2021) [1, 12]: -2.04; Zeta Count Rate / kcps [3, 13]: 27.73 kcps; Zeta Count Rate Category ([3]; key not given): 0
KVKVQVVV [TG8]					820 RLU /s	1.473	-1.455	0.03506	low	-1.455	1	1	163.1 kcps	infectivity [1, 9]: low; Rel-to EFC (Feb-2021) [1, 10]: 0.03506; n-fold to virus (Feb2021) [1, 11]: 1.473; Log10 of Rel to EFC (Feb2021) [1, 12]: -1.455; Zeta Count Rate / kcps [3, 13]: 163.1 kcps; Zeta Count Rate Category ([3]; key not given): 1
KYFIL [reference compound]	-1.14	0.07	0	18903 kcps										
KYKYQY [KB1]					230 RLU /s	0.4313	-1.989	0.01026	low	-1.9887	0	0	31.53 kcps	
LASLIYR [reference compound]	-1.2	0.06	0	105 kcps										
MKVIFLKDVKG [reference compound]	-0.93	0.12	1	137 kcps										infectivity enhancement, in words ([1]; fibril-forming peptides with positive zeta-potential, low count rate): do not enhance infectivity
NKGAII [reference compound]	-1.2	0.06	0	68 kcps										
RATVYV [reference compound]	-1.38	0.04	1	42 kcps										
RFWFWFW		0.32	0	30037.33333 kcps										Log10 Infection Rel EF-C ([1]; Figure 6C): -0.495; Log10 Count Rate [3, 14]: 4.478; Log10 Count Rate [3, 15]: 4.478
RGDKIKIQINM [MG8a / CN17]					9554 RLU /s	17.36	-0.3838	0.4132	medium	-0.3838	1	0	57.2 kcps	n-fold to virus (Feb2021) [1, 16]: 17.36; Log10 of Rel to EFC (Feb2021) [1, 17]: -0.3838; Rel-to EFC (Feb-2021) [1, 18]: 0.4132; Rel-to EFC (Feb-2021) [1, 10]: 0.4132; n-fold to virus (Feb2021) [1, 11]: 17.36; Log10 of Rel to EFC (Feb2021) [1, 12]: -0.3838; Zeta Count Rate / kcps [3, 13]: 57.2 kcps; Zeta Count Rate / kcps [3, 19]: 57.2 kcps; Zeta Count Rate Category ([3]; key not given): 0
RGDKIKIQINMC [psis29]									high	0.02911	1			n-fold to virus (Feb2021) [1, 16]: 44.93; Log10 of Rel to EFC (Feb2021) [1, 17]: 0.02911; Rel-to EFC (Feb-2021) [1, 18]: 1.069; infectivity [1, 9]: high; Rel-to EFC (Feb-2021) [1, 10]: 1.069; n-fold to virus (Feb2021) [1, 11]: 44.93; Log10 of Rel to EFC (Feb2021) [1, 12]: 0.02911; TEM: 1= fibrils, 0= aggregates (micelle), 0.5 = aggregates and fibrils, -1 = nothing obersved, STD prep ([2]; FigS26): 1; Zeta Count Rate / kcps [3, 13]: 1404 kcps; Zeta Count Rate / kcps [3, 19]: 1404 kcps; Zeta Count Rate Category ([3]; key not given): 1
RGDKIKIQINMWQ [MG9a]									high	-0.1175	0.5			Log10 of Rel to EFC (Feb2021) ([1]; Feb2021, Log10 of infectivity relative to EF-C): -0.1175; Rel-to EFC (Feb-2021) ([1]; Feb2021, n-fold enhancement relative to EF-C): 0.763; n-fold to virus (Feb2021) [1, 16]: 32.06; Log10 of Rel to EFC (Feb2021) [1, 17]: -0.1175; Rel-to EFC (Feb-2021) [1, 18]: 0.763; infectivity [1, 9]: high; Zeta Count Rate Category ([3]; category 1 or 0 from count rate, key not given): 1; Zeta Count Rate / kcps ([3]; derived count rate of scattered light, mean, std deviation in next column): 1554 kcps; Zeta Count Rate / kcps [3, 19]: 1554 kcps
RGECKFKFQF [CN16]					7411 RLU /s	13.99	-0.4776	0.3329	medium	-0.4776	1	1	219.3 kcps	
RGEKIKIQINM [CN18]					7838 RLU /s	10.23	-0.6134	0.2436	medium	-0.6134	1	1	594.6 kcps	
RINFWFW		0.04	0	50995.8 kcps										Log10 Infection Rel EF-C ([1]; Figure 6C): -1.347; Log10 Count Rate [3, 14]: 4.708; Log10 Count Rate [3, 15]: 4.708
RIRFHIW		0.01	0	12.4 kcps										Log10 Infection Rel EF-C ([1]; Figure 6C): -1.984; Log10 Count Rate [3, 14]: 1.093; Log10 Count Rate [3, 15]: 1.093
